Results published in US6960614B2, “Oxygenated esters of 4-lodo phenylamino benzhydroxamic acids” (Warner-Lambert Company, priority 2000, dated 2005).

Tests used:
MEK = test: Cellular Assay for Measuring MEK Inhibition (inhibition of ERK phosphorylation in C26 cells, Western blot); format: cell-based, murine; settings: inhibition of ERK phosphorylation in murine colon 26 (C26) carcinoma cells; determined graphically from dose response curve
Method in brief: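 Read-out is phospho-ERK1/2 by Western blot, normalized against total ERK1/2 after stripping and re-probing. Murine C26 colon carcinoma cells in exponential growth were exposed to a range of compound concentrations at 37° C before lysis.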

| SMILES | melting point | IC50 (MEK) [nM] |
| --- | --- | --- |
| Cc1cc(I)ccc1Nc1c(C(=O)NOCCO)cc(Br)c(F)c1F [Example 13, 5-Bromo-3,4-difluoro-N-(2-hydroxy-ethoxy)-2-(4-iodo-2-methyl-phenylamino)-benzamide] | 208.2 to 209.6 °C | 2 |
| O=C(NOCCO)c1cc(Cl)c(F)c(F)c1Nc1ccc(I)cc1Cl [Example 20, 5-Chloro-2-(2-chloro-4-iodo-phenylamino)-3,4-difluoro-N-(2-hydroxy-ethoxy)-benzamide] | 178 to 181 °C | 3 |
| Cc1cc(I)ccc1Nc1cc(F)c(F)cc1C(=O)NOCCO [Example 12, 4,5-Difluoro-N-(2-hydroxy-ethoxy)-2-(4-iodo-2-methyl-phenylamino)-benzamide] | 151.2 to 152.5 °C | 22 |
| O=C(NOCCO)c1cc(Br)c(F)c(F)c1Nc1ccc(I)cc1F [Example 11, 5-Bromo-3,4-difluoro-2-(2-fluoro-4-iodo-phenylamino)-N-(2-hydroxy-ethoxy)-benzamide] | 189 to 190 °C | 2 |
| O=C(NOCC(O)CO)c1cc(F)c(F)c(F)c1Nc1ccc(I)cc1F (centres unmarked) [Example 43, N-(2,3-Dihydroxy-propoxy)-3,4,5-trifluoro-2-(2-fluoro-4-iodo-phenylamino)-benzamide] | 157 to 160 °C | 1.8 |
| O=C(NOC[C@H](O)CO)c1cc(Cl)c(F)c(F)c1Nc1ccc(I)cc1Cl [Example 51, 5-Chloro-2-(2-chloro-4-iodo-phenylamino)-N-[(R)-2,3-dihydroxy-propoxy]-3,4-difluoro-benzamide] | 155 to 156 °C | 3.8 |
| O=C(NOC(CO)CO)c1cc(Cl)c(F)c(F)c1Nc1ccc(I)cc1F [Example 48, 5-Chloro-3,4-difluoro-2-(2-fluoro-4-iodo-phenylamino)-N-(2-hydroxy-1-hydroxymethyl-ethoxy)-benzamide] | 173 to 175 °C | 1.6 |
| O=C(NOCCO)c1cc(Br)c(F)cc1Nc1ccc(I)cc1F [Example 19] | 173 to 175 °C | 1 |
| O=C(NOCC(O)CO)c1ccc(F)c(F)c1Nc1ccccc1F (centres unmarked) [Example 85, N-(2,3-Dihydroxy-propoxy)-3,4-difluoro-2-(2-fluoro-phenylamino)-benzamide] | 113 to 115 °C | 54 |
| CC(C)(O)C(O)CONC(=O)c1ccc(F)c(F)c1Nc1ccc(I)cc1F (centres unmarked) [Example 76, N-(2,3-Dihydroxy-3-methyl-butoxy)-3,4-difluoro-2-(2-fluoro-4-iodo-phenylamino)-benzamide] | 180 to 183 °C | 6 |
| O=C(NOCCO)c1cc(F)c(F)cc1Nc1ccc(Br)cc1F [Example 23, 2-(4-Bromo-2-fluoro-phenylamino)-4,5-difluoro-N-(2-hydroxy-ethoxy)-benzamide] | 190.8 to 192.5 °C | 32 |
| Cc1cc(I)ccc1Nc1c(C(=O)NOCC(O)CO)cc(Cl)c(F)c1F (centres unmarked) [Example 35, 5-Chloro-N-(2,3-dihydroxy-propoxy)-3,4-difluoro-2-(4-iodo-2-methyl-phenylamino)-benzamide] | 67 to 69 °C | 6 |
| O=C(NOCC(O)C(F)(F)F)c1cc(Br)c(F)c(F)c1Nc1ccc(I)cc1Cl (centres unmarked) [Example 73, 5-Bromo-2-(2-chloro-4-iodo-phenylamino)-3,4-difluoro-N-(3,3,3-trifluoro-2-hydroxy-propoxy)-benzamide] | 186.9 to 187.3 °C | 80 |
| O=C(NOC[C@@H](O)CO)c1cc(Cl)c(F)c(F)c1Nc1ccc(I)cc1Cl [Example 52, 5-Chloro-2-(2-chloro-4-iodo-phenylamino)-N-[(S)-2,3-dihydroxy-propoxy]-3,4-difluoro-benzamide] | 153 to 154 °C | 7.8 |
| Cc1cc(I)ccc1Nc1c(C(=O)NOCCO)cc(F)c(F)c1F [Example 1, 3,4,5-Trifluoro-N-(2-hydroxy-ethoxy)-2-(4-iodo-2-methyl-phenylamino)-benzamide] | 205 to 207 °C (dec.) | 8 |
| O=C(NOCCO)c1ccc(F)cc1Nc1ccc(I)cc1F [Example 8, 4-Fluoro-2-(2-fluoro-4-iodo-phenylamino)-N-(2-hydroxy-ethoxy)-benzamide] | 117 to 119 °C | 0.3 |
| Cc1cc(I)ccc1Nc1c(C(=O)NOCCO)cc(Cl)c(F)c1F [Example 15] | 199.1 to 200.8 °C | 1 |

Continued, values first:

| melting point | IC50 (MEK) [nM] | SMILES |
| --- | --- | --- |
| 181 to 183 °C | 3 | Cc1cc(I)ccc1Nc1c(C(=O)NOCCO)ccc(F)c1F [Example 2, 3,4-Difluoro-N-(2-hydroxy-ethoxy)-2-(4-iodo-2-methyl-phenylamino)-benzamide] |
| 131.4 to 131.9 °C | 5 | O=C(NOCCCCO)c1ccc(F)c(F)c1Nc1ccc(I)cc1F [Example 33] |
| 140 to 153 °C | 13 | CC(C)(O)CONC(=O)c1ccc(F)c(F)c1Nc1ccc(I)cc1Cl [Example 64, 2-(2-Chloro-4-iodo-phenylamino)-3,4-difluoro-N-(2-hydroxy-2-methyl-propoxy)-benzamide] |
| 183 to 185 °C (dec.) | 230 | CNCCONC(=O)c1ccc(F)c(F)c1Nc1ccc(I)cc1C [Example 78, 3,4-Difluoro-2-(4-iodo-2-methyl-phenylamino)-N-(2-methylamino-ethoxy)-benzamide] |
| 178 to 180 °C | 2 | CC(C)(CO)ONC(=O)c1cc(Cl)c(F)c(F)c1Nc1ccc(I)cc1F [Example 66, 5-Chloro-3,4-difluoro-2-(2-fluoro-4-iodo-phenylamino)-N-(2-hydroxy-1,1-dimethyl-ethoxy)-benzamide] |
| 175.2 to 175.5 °C | 19 | Cc1cc(I)ccc1Nc1c(C(=O)NOCC(O)C(F)(F)F)ccc(F)c1F (centres unmarked) [Example 72, 3,4-Difluoro-2-(4-iodo-2-methyl-phenylamino)-N-(3,3,3-trifluoro-2-hydroxy-propoxy)-benzamide] |
| 182 to 183 °C | 14 | CC(C)(CO)ONC(=O)c1ccc(F)c(F)c1Nc1ccc(I)cc1F [Example 65, 3,4-Difluoro-2-(2-fluoro-4-iodo-phenylamino)-N-(2-hydroxy-1,1-dimethyl-ethoxy)-benzamide] |
| 142.1 to 142.5 °C | 26 | O=C(NOCCO)c1ccc(F)c(F)c1Nc1ccc(Cl)cc1F [Example 24, 2-(4-Chloro-2-fluoro-phenylamino)-3,4-difluoro-N-(2-hydroxy-ethoxy)-benzamide] |
| 180 to 180.5 °C | 0.3 | O=C(NOCCO)c1cc(Cl)c(F)c(F)c1Nc1ccc(I)cc1F [Example 10, 5-Chloro-3,4-difluoro-2-(2-fluoro-4-iodo-phenylamino)-N-(2-hydroxy-ethoxy)-benzamide] |
| 136.2 to 136.5 °C | 24 | COCC(O)CONC(=O)c1ccc(F)c(F)c1Nc1ccc(I)cc1C (centres unmarked) [Example 68] |
| 129.6 to 130.4 °C | 52 | O=C(NOCCO)c1ccc(F)c(F)c1Nc1ccccc1F [Example 25, 3,4-Difluoro-2-(2-fluoro-phenylamino)-N-(2-hydroxy-ethoxy)-benzamide] |
